Measured values taken from ChEMBL document CHEMBL1781986, “Structure-activity relationships of pyrrole based S-nitrosoglutathione reductase inhibitors: pyrrole regioisomers and propionic acid replacement” (Bioorg Med Chem Lett, 2011).
Calls of active or inactive are those of the source. The rule behind the calls is not given here.

Columns and labels:
[1] = molecular target: T1, Endothelin-1 receptor (Homo sapiens) (UniProt P25101); test: Inhibition of human recombinant ETA receptor at 10 uM by radioligand binding assay
T1 sequence (whole entry): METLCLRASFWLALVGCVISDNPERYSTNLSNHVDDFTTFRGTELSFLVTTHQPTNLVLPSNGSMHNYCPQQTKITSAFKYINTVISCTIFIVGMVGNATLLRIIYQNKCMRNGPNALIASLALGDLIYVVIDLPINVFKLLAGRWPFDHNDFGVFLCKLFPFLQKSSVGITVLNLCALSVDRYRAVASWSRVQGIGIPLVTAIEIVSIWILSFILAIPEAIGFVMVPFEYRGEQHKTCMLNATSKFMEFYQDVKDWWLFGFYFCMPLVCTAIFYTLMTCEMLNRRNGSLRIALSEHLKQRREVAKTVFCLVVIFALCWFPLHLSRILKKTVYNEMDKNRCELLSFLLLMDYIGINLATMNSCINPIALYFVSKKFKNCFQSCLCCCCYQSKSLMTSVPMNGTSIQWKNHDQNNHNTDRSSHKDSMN

[2] = system: Neuropeptide Y receptor type 1; test: Inhibition of human recombinant Y1 receptor at 10 uM by radioligand binding assay
[3] = molecular target: T2, Type-1 angiotensin II receptor (Homo sapiens) (UniProt P30556); test: Inhibition of human recombinant AT1 receptor at 10 uM by radioligand binding assay
T2 sequence (whole entry): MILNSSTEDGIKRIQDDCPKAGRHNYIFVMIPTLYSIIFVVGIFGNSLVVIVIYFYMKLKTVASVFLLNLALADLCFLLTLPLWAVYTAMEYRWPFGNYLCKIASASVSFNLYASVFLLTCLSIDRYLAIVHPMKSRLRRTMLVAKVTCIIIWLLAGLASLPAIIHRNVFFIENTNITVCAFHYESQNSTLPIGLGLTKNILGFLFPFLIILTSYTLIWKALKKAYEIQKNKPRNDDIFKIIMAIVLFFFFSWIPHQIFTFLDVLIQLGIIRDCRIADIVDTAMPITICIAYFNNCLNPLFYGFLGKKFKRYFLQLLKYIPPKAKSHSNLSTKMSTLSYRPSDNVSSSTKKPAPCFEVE

Homo sapiens [4] = species: Homo sapiens; test: Inhibition of human recombinant Dop delta2 receptor at 10 uM by radioligand binding assay
[5] = molecular target: T3, Thromboxane A2 receptor (Homo sapiens) (UniProt P21731); test: Inhibition of human recombinant TP receptor at 10 uM by radioligand binding assay
T3 sequence (whole entry): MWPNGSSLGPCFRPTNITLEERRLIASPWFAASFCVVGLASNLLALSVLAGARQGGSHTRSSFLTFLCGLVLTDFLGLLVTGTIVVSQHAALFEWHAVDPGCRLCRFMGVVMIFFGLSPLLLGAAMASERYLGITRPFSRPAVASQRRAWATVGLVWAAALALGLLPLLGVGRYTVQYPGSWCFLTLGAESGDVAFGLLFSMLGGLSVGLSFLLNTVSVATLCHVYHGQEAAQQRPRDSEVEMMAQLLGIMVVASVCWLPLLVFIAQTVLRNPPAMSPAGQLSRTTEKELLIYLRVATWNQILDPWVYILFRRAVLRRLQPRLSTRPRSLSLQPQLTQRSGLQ

[6] = system: Voltage-gated potassium channel; test: Inhibition of human recombinant Kv channel at 10 uM by radioligand binding assay; format: protein assay
[7] = molecular target: 5-hydroxytryptamine receptor 6 (Homo sapiens) (UniProt P50406); test: Inhibition of human recombinant 5HT6 receptor at 10 uM by radioligand binding assay
5-hydroxytryptamine receptor 6 (Homo sapiens), sequence (P50406 whole entry): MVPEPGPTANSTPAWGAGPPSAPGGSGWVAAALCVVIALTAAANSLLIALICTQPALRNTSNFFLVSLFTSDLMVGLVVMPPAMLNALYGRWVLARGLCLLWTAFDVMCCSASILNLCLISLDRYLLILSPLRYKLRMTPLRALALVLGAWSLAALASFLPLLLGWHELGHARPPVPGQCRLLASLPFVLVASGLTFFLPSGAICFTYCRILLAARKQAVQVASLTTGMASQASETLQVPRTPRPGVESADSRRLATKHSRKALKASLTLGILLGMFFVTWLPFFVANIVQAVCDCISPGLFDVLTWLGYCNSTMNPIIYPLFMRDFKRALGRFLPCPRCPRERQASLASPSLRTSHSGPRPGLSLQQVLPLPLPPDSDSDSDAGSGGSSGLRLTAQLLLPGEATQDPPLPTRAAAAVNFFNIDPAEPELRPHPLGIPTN

Homo sapiens [8] = species: Homo sapiens; test: Inhibition of human recombinant GABA receptor at 10 uM by radioligand binding assay
Homo sapiens [9] = species: Homo sapiens; test: Inhibition of human recombinant BZD receptor at 10 uM by radioligand binding assay
[10] = molecular target: T4, 5-hydroxytryptamine receptor 3A (Homo sapiens) (UniProt P46098); test: Inhibition of human recombinant 5HT3 receptor at 10 uM by radioligand binding assay
T4 sequence (whole entry): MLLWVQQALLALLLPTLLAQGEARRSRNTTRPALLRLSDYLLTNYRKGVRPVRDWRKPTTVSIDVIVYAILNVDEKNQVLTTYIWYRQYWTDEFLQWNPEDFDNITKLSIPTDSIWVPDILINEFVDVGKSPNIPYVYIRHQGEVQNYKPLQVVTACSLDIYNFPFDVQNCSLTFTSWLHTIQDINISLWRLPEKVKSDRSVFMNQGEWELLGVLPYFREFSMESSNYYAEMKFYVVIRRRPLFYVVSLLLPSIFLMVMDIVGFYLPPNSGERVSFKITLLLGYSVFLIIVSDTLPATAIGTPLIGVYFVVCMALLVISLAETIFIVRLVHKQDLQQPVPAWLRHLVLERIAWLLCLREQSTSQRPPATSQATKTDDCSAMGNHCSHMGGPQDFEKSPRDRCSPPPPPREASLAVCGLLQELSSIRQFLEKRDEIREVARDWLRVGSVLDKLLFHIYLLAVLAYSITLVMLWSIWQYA

[11] = molecular target: T5, Adenosine receptor A3 (Homo sapiens) (UniProt P0DMS8); test: Inhibition of human recombinant A3 receptor at 10 uM by radioligand binding assay
T5 sequence (whole entry): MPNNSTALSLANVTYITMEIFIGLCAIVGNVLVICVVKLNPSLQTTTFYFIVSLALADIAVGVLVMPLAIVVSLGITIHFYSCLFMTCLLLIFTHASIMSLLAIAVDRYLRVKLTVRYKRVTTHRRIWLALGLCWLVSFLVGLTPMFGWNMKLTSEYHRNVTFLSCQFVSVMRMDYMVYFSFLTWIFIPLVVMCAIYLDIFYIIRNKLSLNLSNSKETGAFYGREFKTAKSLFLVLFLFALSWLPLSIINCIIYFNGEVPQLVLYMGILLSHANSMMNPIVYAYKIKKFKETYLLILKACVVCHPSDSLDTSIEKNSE

[12] = molecular target: 5-hydroxytryptamine receptor 5A (Homo sapiens) (UniProt P47898); test: Inhibition of human recombinant 5HT5A receptor at 10 uM by radioligand binding assay
5-hydroxytryptamine receptor 5A (Homo sapiens), sequence (P47898 whole entry): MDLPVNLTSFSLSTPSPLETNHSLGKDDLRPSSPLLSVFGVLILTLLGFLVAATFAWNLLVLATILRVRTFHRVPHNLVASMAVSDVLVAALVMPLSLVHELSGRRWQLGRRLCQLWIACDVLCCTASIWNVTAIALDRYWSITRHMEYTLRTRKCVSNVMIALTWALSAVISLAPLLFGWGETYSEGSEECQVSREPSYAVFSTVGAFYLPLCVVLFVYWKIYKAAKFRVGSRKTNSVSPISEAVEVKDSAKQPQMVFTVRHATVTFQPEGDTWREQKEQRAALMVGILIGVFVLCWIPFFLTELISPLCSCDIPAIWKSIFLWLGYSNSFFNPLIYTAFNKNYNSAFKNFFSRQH

[13] = molecular target: Adrenergic receptor alpha-1 (Homo sapiens) (UniProt P35348+P25100+P35368); test: Inhibition of human recombinant alpha1 receptor at 10 uM by radioligand binding assay
[14] = Inhibition of GSNOR expressed in Escherichia coli using GSNO by plate method

SMILES | inhibition [1] | inhibition [2] | inhibition [3] | inhibition (Homo sapiens [4]) | inhibition [5] | inhibition (INH) [6] | inhibition [7] | inhibition (Homo sapiens [8]) | inhibition (Homo sapiens [9]) | inhibition [10] | inhibition [11] | inhibition [12] | inhibition [13] | IC50 [14] [µM]
COc1ccc(-c2ccn(-c3ccc(C(=O)O)c(O)c3)c2-c2ccc(C(N)=O)cc2C)cc1 | Active | Active | Active | Active | Active | Active | Active | Active | Active | Active | Active | Active | Active | 
Cc1cc(C(N)=O)ccc1-c1c(CCC(=O)O)ccn1-c1ccc(-n2ccnc2)cc1 | inactive | inactive | inactive | Active | inactive | Not Active | inactive | inactive | inactive | inactive | inactive | inactive | inactive | 0.0099
COc1ccc(-c2ccn(-c3ccc(O)c([N+](=O)[O-])c3)c2-c2ccc(C(N)=O)cc2C)cc1 | Active | Active | Active | Active | Active | Active | Active | Active | Active | Active | Active | Active | Active | 
Cc1cc(C(N)=O)ccc1-c1c(-c2ccc(-n3ccnc3)cc2)ccn1CCC(=O)O | inactive | inactive | inactive | Active | inactive | Not Active | inactive | inactive | inactive | inactive | inactive | inactive | inactive | 0.035
Cc1cc(C(N)=O)ccc1-n1c(CCC(=O)O)ccc1-c1ccc(-n2ccnc2)cc1 [N6022] | inactive |  | inactive | Active | inactive | Not Active | inactive | inactive | inactive | inactive | inactive | inactive | inactive | 0.01
